Read-outs that look alike come from different tables or passages of the source.
Key:
PC12-HS cells [1] = test: Evaluation B: neurite-outgrowth action in presence of NGF; assay type: cell-based, rat
[2] = Hydroxyl radical-scavenging activity, ESR (Fenton reaction)
Procedure: Stock solutions, prepared by dissolving NK-4, NK-19, NK-53, NK-100, and NK-557 in DMSO, were respectively diluted with refined water to give concentrations of 3-folds higher than those in Table 14 and used as test sample solutions. As a positive control, a neuroprotectant, “edaravone”, commercialized as “RADICUT®” containing 3-methyl-1-phenyl-2-pyrazoline-5-one as an effective ingredient by Mitsubishi Tanabe Pharma Corporation, Osaka, Japan, was diluted with refined water to give a concentration of 3-folds higher than that in Table 14 for use. To 50 μl of refined water, 50 μl of 89 mM DMPO ([…]) commercialized by Dojindo Laboratories, Kumamoto, Japan, 50 μl of the test sample solution, and 50 μl of an aqueous solution containing 1 mM hydrogen peroxide, 1 mM FeSO4, and 1 mM DTPA, commercialized by Wako Pure Chemical Industries, Osaka, Japan, were added, mixed for 10 seconds using a vortex mixer and allowed to react in an incubator controlled at 37° for 40 seconds. After 30 seconds from completion of the reaction, the resulting reaction mixture was subjected to ESR measurement. A control solution was prepared by the same method as above except for using 50 μl of a diluted edaravone solution as a substitute for the test sample solution, and subjected to ESR measurement.
The reaction mixture for measuring hydroxyl or peroxyl radicals was poured into a flat quartz cell for ESR, set to “FREE RADICAL MONITOR JES-FR30”, an ESR apparatus commercialized by JOEL Ltd., Tokyo, Japan, and ESR was measured according to manual manner. The residual ratio of peroxyl radical (%) was determined as a relative value by defining the ESR value, obtained by using 0.1 M phosphate buffer as a substitute of the test sample solution, as 100. The results are in Tables 14 and 15. […] Therefore, the IC50 of edaravone was determined by another test using its higher concentration, and the result is also shown in Table 14. The conditions of the ESR measurement were set as follows: […]

PC12-HS cells [3] = test: Evaluation A: neurocyte (cell)-growth-promoting action, ALAMAR BLUE; assay type: cell-based, rat
Procedure: Then, the effects of test samples were judged as follows:
The relative value of 140 to 199: Equivalent effect to that of NK-4, symbol (∘); The relative value of 200 or higher: Stronger effect than that of NK-4, symbol ([…]). • The results are in Table 6.
The relative fluorescent intensity of each well was determined by using the fluorescent intensity of each well with cells, which had been cultured by admixing with D-MEM medium containing 10% by volume of FBS without any of the compounds, and the intensity of the resulting culture was regarded as 100%. The results are expressed as cell survival percentages (%) in Table 9. […]
The test was conducted twice for each test sample in a triplicate manner and the data were averaged.
Seven compounds as in Table 17, NK-234, NK-26, NK-9815, NK-9694, NK-28 and NK-147 as well as NK-4, were each dissolved in DMSO to give a concentration of 5 mg/ml. […] The test was conducted twice for each test sample in a triplicate manner and the data were averaged.

PC12-HS cells [4] = details: 6-hydroxy dopa, 24 hours
Procedure: 6-Hydroxy dopa was used as a cytotoxic agent. Similarly as in Experiment 1, PC12-HS cells, which had been cultured in D-MEM medium supplemented with 10 v/v % FBS, were inoculated to 96-well microplates by 2×10^4/100 μl/well. […] Thereafter, the cells were fixed with 10% glutaraldehyde and the absorbance at 650 nm was measured by conventional dye-uptake method using methylene blue.

[5] = target: T1, acetylcholine esterase (AchE) (Rattus norvegicus, UniProt P37136); test: biochemical; assay type: biochemical
T1 sequence (P37136 32-614): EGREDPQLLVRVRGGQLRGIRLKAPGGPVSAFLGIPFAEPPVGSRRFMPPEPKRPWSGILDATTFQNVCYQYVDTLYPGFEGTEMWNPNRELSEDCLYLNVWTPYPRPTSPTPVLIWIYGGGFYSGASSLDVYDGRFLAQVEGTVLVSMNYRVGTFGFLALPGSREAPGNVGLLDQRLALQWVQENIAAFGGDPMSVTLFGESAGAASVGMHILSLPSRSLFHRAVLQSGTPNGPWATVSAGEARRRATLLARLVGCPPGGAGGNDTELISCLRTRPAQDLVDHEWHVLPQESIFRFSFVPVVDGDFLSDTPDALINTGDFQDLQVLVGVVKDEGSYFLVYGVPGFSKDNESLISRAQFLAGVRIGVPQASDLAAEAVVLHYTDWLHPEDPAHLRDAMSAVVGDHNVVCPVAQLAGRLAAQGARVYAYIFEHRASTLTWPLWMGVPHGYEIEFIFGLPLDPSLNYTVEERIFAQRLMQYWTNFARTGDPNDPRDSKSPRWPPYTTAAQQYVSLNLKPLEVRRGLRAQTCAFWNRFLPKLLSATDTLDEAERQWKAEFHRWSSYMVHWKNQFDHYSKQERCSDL

[6] = compound concentration 80 ng/ml
[7] = compound concentration 400 ng/ml
[8] = compound concentration 2000 ng/ml
[9] = compound concentration 10000 ng/ml
[10] = compound concentration 25 ng/ml

Question: Which results are given for `CCCCCCN1C=CC(=CC=C(C=Cc2cc[n+](CCCCCC)c3ccccc23)c2cc[n+](CCCCCC)c3ccccc23)c2ccccc21.[I-].[I-]` [NK-9694]?
Answer: Action on neurite outgrowth (%) (PC12-HS cells [1]; [6]): 45 ± 8%; Action on neurite outgrowth (%) (PC12-HS cells [1]; [7]): 55 ± 14%; Action on neurite outgrowth (%) (PC12-HS cells [1]; [8]): 38 ± 12%; Action on neurite outgrowth (%) (PC12-HS cells [1]; [9]): 10< %; IC50 (μg/ml) of hydroxyl radical-scavenging activity [2]: 3.4 µg/mL; Action of enhancing cell growth (%) (PC12-HS cells [3]; [10]): 269 ± 17%; Action of enhancing cell growth (%) (PC12-HS cells [3]; compound concentration 50 ng/ml): 123 ± 88%; Action of enhancing cell growth (%) (PC12-HS cells [3]; compound concentration 100 ng/ml): 402 ± 111%; Action of enhancing cell growth (%) (PC12-HS cells [3]; compound concentration 200 ng/ml): 320 ± 36%; suppression of cytotoxicity by 6-hydroxy dopa (in words) (PC12-HS cells [4]): significantly suppressed; Survival-cell percentage (%) (PC12-HS cells [4]; compound 0.83 ng/ml): 62 ± 1%; Survival-cell percentage (%) (PC12-HS cells [4]; compound 3.3 ng/ml): 68 ± 2 %; Survival-cell percentage (%) (PC12-HS cells [4]; compound 13 ng/ml): 67 ± 0 %; Survival-cell percentage (%) (PC12-HS cells [4]; compound 50 ng/ml): 62 ± 3%; Survival-cell percentage (%) (PC12-HS cells [4]; compound 200 ng/ml): 47 ± 1%; Survival-cell percentage (%) (PC12-HS cells [4]; compound 800 ng/ml): 42 ± 1%

Question: Which results are given for `CCCCCN1C=CC(=CC=C(C=Cc2cc[n+](CCCCC)c3ccccc23)c2cc[n+](CCCCC)c3ccccc23)c2ccccc21.[I-].[I-]` [NK-9815]?
Answer: Residual ratio of AchE activity (%) ([5]; concentration of compound 0.78 μg/ml): 82 ± 2%; Residual ratio of AchE activity (%) ([5]; concentration of compound 1.56 μg/ml): 98 ± 24%; Residual ratio of AchE activity (%) ([5]; concentration of compound 3.13 μg/ml): 93 ± 36%; Residual ratio of AchE activity (%) ([5]; concentration of compound 6.25 μg/ml): 94 ± 16%; Residual ratio of AchE activity (%) ([5]; concentration of compound 12.5 μg/ml): 56 ± 7 %; Residual ratio of AchE activity (%) ([5]; concentration of compound 25 μg/ml): 41 ± 14 %; Residual ratio of AchE activity (%) ([5]; concentration of compound 50 μg/ml): 24 ± 4 %; IC50 ([5]; concentration that suppresses AchE activity by 50%, calculated from residual ratios): 17.3 µg/mL; Action on neurite outgrowth (%) (PC12-HS cells [1]; [6]): 68 ± 12%; Action on neurite outgrowth (%) (PC12-HS cells [1]; [7]): 62 ± 12%; Action on neurite outgrowth (%) (PC12-HS cells [1]; [8]): 56 ± 2%; Action on neurite outgrowth (%) (PC12-HS cells [1]; [9]): 11 ± 2%; Action of enhancing cell growth (%) (PC12-HS cells [3]; [10]): 304 ± 26%
